# Patent publication US12359176B2, “Engineered cells for production of indole-derivatives” (priority 2019, dated 2025)
# Columns and labels:
# Type in all cases: cell-based
# [1] = system: E. coli YhjV knockout (HMP3406_YhjV KO); experiment: Growth test of yhjV knockout strain in tryptophan; settings: 1 mM tryptophan, M9 with 0.2% glucose, 30° C., 48 h
# Procedure: This Example describes testing the influence of YhjV on the uptake of amino acids. The growth test was performed using M9 medium supplemented with 0.2% glucose and 1 mM tryptophan, as well as appropriate antibiotics (100 mg/L ampicillin or 50 mg/L kanamycin). The growth curves were monitored with Growth Profiler (Enzyscreen, Heemstede, Netherland) at 30° C. and 250 RPM for 48 h.
# We first tested how YhjV transporter affects the growth of E. coli tryptophan. We followed the growth curves of E. coli wild type BW25113 (HMP0_wt), YhjV knockout (HMP3406_YhjV KO) and YhjV overexpression (HMP3405_YhjV O. E., made by transforming pHM635 into HMP0) in M9 medium containing 0.2% glucose supplemented with 1 mM tryptophan.
# E. coli = experiment: Growth of E. coli in the presence of melatonin
# Procedure: FIG. 2. High-concentration of melatonin decreased cell growth of E. coli. Melatonin stock-solution was made by dissolving melatonin into 70% ethanol (ETOH). The growth medium was M9 supplemented with 0.2% glucose and 2 to 7 g/L melatonin. […] The ordinate scale reflects optical density.
# (§1) The E. coli Keio strains (single gene deleted strains) were inoculated into 400 μl of M9+0.2% glucose media supplemented with kanamycin (50 μg/ml) in 96 deep well-plate picking the single colonies in LB-agar plates. Then, the plate was incubated at 30° C. with 300 rpm overnight (incubated for 18-24 h). The wild type strain E. coli BW25113 was used as a control. The following day, the saturated pre-cultures were diluted 100 fold into 300 μl of M9+0.2% glucose media (and antibiotics as required) supplemented with 4.4% of ethanol or 4.4% of ethanol and 4.4 g/L of melatonin so that the resulting final concentration would be 4% of ethanol and 4 g/L of melatonin in 96 well MTP plate. In case of the RBS library of yhjV, screening was performed at 5 g/L of melatonin instead of 4 g/L. Then, the culture plates were incubated in Growth Profiler (Enzyscreen, Heemstede, Netherland) at 30° C. and 250 RPM for 48 h with constant monitoring of the growth by taking picture in every 20 minutes interval. Using the GP software (GP960Viewer version 1.0.0.4, Enzyscreen, Heemstede, Netherland), the pictures data was converted into digital OD600 nm values and the growth curves were compared.
# In order to elucidate whether melatonin production at high titers is toxic to E. coli, we tested the growth of E. coli strain in the presence of different concentrations of melatonin. Melatonin was externally added into M9 medium supplemented with 0.2% glucose and the growth curves were monitored. […] Compared to the control, the biomass yield decreased ˜30% at 2 g/L melatonin, and further decreased about 30% at 7 g/l melatonin.
# [2] = system: E. coli Keio strains (single gene deleted strains); experiment: Growth Profiler growth test of transporter knockout (Keio) strains in 4 g/L melatonin; settings: 4% ethanol, M9+0.2% glucose, vs BW25113 control strain
# Procedure: as §1
# To identify any melatonin-specific native transporters in E. coli, an E. coli knockout library of 430 strains was screened, testing cell growth in the presence of 4 g/L (or 5 g/L) melatonin using the Growth Profiler. In such a screen, improved growth parameters (especially higher growth rate and/or lower lag time) compared to wild-type strain can be expected in case an importer is knocked-out, whereas decreased growth parameters can be expected in case an exporter is knocked-out (FIG. 3).
# The growth curves of the five selected transporter candidate deletion strains (target candidate knocked-out Keio strains) were accessed after running growth profiler experiments as mentioned above.
SMILES,growth of YhjV knockout compared to the wild type [1],"biomass yield decrease compared to the control (E. coli; 2 g/L melatonin, M9 medium with 0.2% glucose, control contains 4% ETOH)","further biomass yield decrease (E. coli; 7 g/l melatonin, M9 medium with 0.2% glucose, control contains 4% ETOH)","effect on E. coli growth (E. coli; high concentrations of melatonin (2 to 7 g/L), M9 with 0.2% glucose)",growth of acrB deletion strain [2],growth of argO deletion strain [2],growth of garP deletion strain [2],growth of lysP deletion strain [2],growth of yhjV deletion strain [2]
"N[C@@H](Cc1c[nH]c2ccccc12)C(=O)O [tryptophan, L-tryptophan]",much lower biomass yield,,,,,,,,
COc1ccc2[nH]cc(CCNC(C)=O)c2c1 [melatonin],,about 30%,about 30%,inhibited E. coli growth,no growth at all,reduced growth rates,longer lag time and reduced growth rate,reduced growth rates,longer lag time and reduced growth rate
